{"source": "patent US10889606B2", "about": "“Biflavone-iron complex, preparation method and application thereof” (NANJING FORESTRY UNIVERSITY, priority 2017, dated 2021)", "key": {"[1]": {"assay": "Pyrogallol auto-oxidation method, O2^−. free radical scavenging", "conditions": "Tris-HCl pH 8.20, 25° C., 322 nm, read-out: IC50 to scavenge O2^−. free radical", "description": "(1) Pyrogallol Auto-Oxidation Method\nDetermination of auto-oxidation rate V0 of pyrogallol: 2 mL Tris-HCl buffer (pH=8.20) was added to a 10 mL sample tube at 25° C., 100 μL, DMSO was added as a control, after adding 0.8 mL distilled water, 0.2 mL pyrogallol solution having a concentration of 2 mmol·L^−1 was added, the mixture was poured into a cuvette after mixing uniformly, the absorbance at 322 nm was measured with pure water as a blank, the A value was recorded every 10 s for a total of 4 min, linear regression was performed with t as the abscissa, and A as the ordinate, straight line slope thereof is V0, and the measurement was performed for three times to obtain an average value.\nThe free radical scavenging rate was calculated according to Formula 3. SR(%)=(1−v1/v0)×[…] (Formula 3)"}, "[2]": {"tested_on": "herring sperm DNA (fDNA)", "assay": "Interaction with herring sperm DNA (fDNA) by UV-vis spectroscopy, fluorescence spectroscopy and viscosity method", "type": "binding", "conditions": "UV-vis, fluorescence (fDNA-EB system), viscosity", "description": "UV-vis spectroscopy, fluorescence spectroscopy and viscosity method are used to study the interaction between the Ame/Ame-Fe complex and herring sperm DNA (fDNA) to further reveal the mechanism of antitumor activity, the obtained spectra are shown in FIGS. 7-11. […] Thereby, it can be speculated that the mechanism of antitumor activity of the Ame and its complex may be that Ame or the complex thereof enters the interior of the cell and intercalates with the DNA strand to cause apoptosis. Since the interaction of the complex with DNA is stronger than of the Ame, the antitumor activity thereof is also stronger than of the Ame."}, "[3]": {"assay": "ABTS method, ABTS^+. free radical scavenging", "conditions": "read-out: IC50 for scavenging ABTS^+. free radicals, 25° C., 5 min, 730 nm", "quoted_text": "The free radical scavenging abilities of the Ame and the Ame-Fe complex were studied by pyrogallol auto-oxidation method and ABTS method with the following steps:\nWithin a certain range, the scavenging rate is linear with the concentration. The curve of the scavenging rate and the concentration (c) is plotted in the present invention to obtain a corresponding linear equation, and the maximum half-inhibitory concentration (IC50 value) is calculated."}}, "data": [{"smiles": "O=c1cc(-c2ccc(O)c(-c3c(O)cc(O)c4c(=O)cc(-c5ccc(O)cc5)oc34)c2)oc2cc(O)cc(O)c12", "note": "[Ame, amentoflavone]", "values": [{"measurement": "IC50", "setting": "[1]", "result": 23.3, "unit": "µM"}, {"measurement": "manner of interaction with fDNA", "setting": "[2]", "result": "in the intercalation manner"}, {"measurement": "IC50", "setting": "[3]", "result": 20.7, "unit": "µM"}]}]}
